According to patent US6930103B2, “Use of vasopeptidase inhibitors in the treatment of metabolic diseases, nephropathy and advanced glycation end-product associated diseases” (Aventis Pharma Deutschland GmbH, priority 2002, dated 2005):

Tests used:
[1] = acute treatment; Chen et al., Hypertension 2001; cited from earlier work
Wistar rats = assay: Albumin and creatinine excretion in Wistar rats (non-diabetic nephropathy); format: in vivo, rat; conditions: Wistar rats, start at age 6 months, mean
Protocol: The albumin and creatinine excretion in Wistar rats was determined. One group was left untreated, one was treated with the ACE/NEP inhibitor of formula (II-B) and one group was treated with the ACE inhibitor ramipril. Wistar rats are non-diabetic and develop proteinuria and structural kidney damage during adult life. Wistar rats are therefore a model for non-diabetic nephropathy. [table]

fat ZDF rats = assay: Histological examination of kidneys of ZDF rats after 6 months treatment; format: in vivo, rat; parameters: Armanni-Ebstein cells MEAN SEVERITY / Glomerulosclerosis MEAN SEVERITY / Atrophy: renal tubule MEAN SEVERITY / Casts: renal tubule MEAN SEVERITY: scale not given here
Protocol: (§1) The protein and creatinine excretion in the urine of male Zucker Diabetic Fatty (ZDF) Rats (ZDF Gmi fa/fa) and heterozygous control animals (ZDF Gmi −/+) of 10, 17, 27 and 37 weeks age was determined. In further groups, diabetic rats were chronically given either ramipril (1 mg/kg/day, in drinking water) or a compound of formula (II-B) (30 mg/kg/day, in food) over a period from 10 to 37 weeks. The animals were sacrificied after 37 weeks, and their kidneys examined histologically.
In the attached tables a summary of the findings on the kidneys after a treatment period of 6 months is listed.

[2] = system: Zucker diabetic fatty rats; assay: HbA1c analysis in ZDF rats; format: in vivo, rat; conditions: for HbA1c, mean: ZDF rats
Protocol: (§2) Blood glucose and HbA1c was measured in 10- and 17-week-old male Zucker diabetic fatty rats (Genetic Model Inc.), control rats (Genetic Model Inc.) and male ZDF rats treated for seven weeks with 30 mg/kg/d of compound (II-B), 35 mg/kg/d of compound (III-B) and 1 mg/kg/d ramipril. Fifteen animals were analyzed in each group.
To obtain blood samples for HbA1c determination, disposable capillary tubes were used. HbA1c values were obtained from hemolyzed whole blood samples with a turbidimetric inhibition immunoassay (Tina-quant, Roche Diagnostics GmbH) and hemoglobin concentrations were determined in a second channel on an automated clinical chemistry analyzer (Boehringer Mannheim/Hitachi 912). HbA1c concentration in percent were calculated from HbA1c to total hemoglobin.

Goto-Kakizaki (GK) rats = assay: Albumin and creatinine excretion in Goto-Kakizaki (GK) rats; format: in vivo, rat; conditions: start at age 6 months, mean
Protocol: The albumin and creatinine excretion in Goto-Kakizaki (GK) rats was determined. GK rats are a model for Type II diabetes. One group was left untreated, one was treated with the ACE/NEP inhibitor of formula (II-B) and one group was treated with the ACE inhibitor ramipril. [table]

[3] = system: Zucker Diabetic Fatty (ZDF) Rats (ZDF Gmi fa/fa); assay: Urinary excretion of albumin and creatinine in ZDF rats treated from 10 to 37 weeks of age; format: in vivo, rat; conditions: ZDF rats, mean
Protocol: as §1

[4] = system: isolated aortic rings of rabbits; assay: Relaxation of aortic rings by acetylcholine in rabbits fed an atherogenic diet; format: in vivo, White New Zealand rabbits; conditions: varied diet rabbits, mean ± SEM
Source text: It was shown in the atherogenic rabbit model (White New Zealand rabbits were fed with 0.25% cholesterol plus 3% coconut oil) that even a short 6 week period of an atherogenic diet leads to sustained endothelial dysfunction, even though the animals received a normal diet for 3 months thereafter. […] The endothelium-dependent relaxation of isolated aortic rings of rabbits as well as the release of nitric oxide and superoxide from endothelial cells serve as measures of endothelial dysfunction. […] (II-B) [table]

ZDF rats = assay: Urinary albumin/creatinine in ZDF rats, treatment starting at an animal age of 6 months; format: in vivo, rat; conditions: start at age 6 months, mean
endothelial cells = assay: NO and superoxide release from endothelial cells in rabbits fed an atherogenic diet; format: in vivo, White New Zealand rabbits; conditions: varied diet rabbits; mean ± SEM
Source text: It was shown in the atherogenic rabbit model (White New Zealand rabbits were fed with 0.25% cholesterol plus 3% coconut oil) that even a short 6 week period of an atherogenic diet leads to sustained endothelial dysfunction, even though the animals received a normal diet for 3 months thereafter.
The endothelium-dependent relaxation of isolated aortic rings of rabbits as well as the release of nitric oxide and superoxide from endothelial cells serve as measures of endothelial dysfunction.
• Groups: • Standard: 18 weeks normal diet • Atherogenic: 18 weeks atherogenic diet (3% Coconut oil+0.25% Cholesterol) • Varied diet (Var.): 6 weeks atherogenic diet+12 weeks normal diet • Varied Diet+ramipril: 6 weeks atherogenic diet+12 weeks normal diet+ramipril • Varied diet+compound (II-B): 6 weeks atherogenic diet+12 weeks normal diet+cpd. (II-B)
NO and O2^− are markers for endothelial function: increased relaxation and increased NO levels are beneficial, while increased O2^− formation inhibits the beneficial effects of NO.

[5] = system: Zucker diabetic fatty rats; assay: Blood glucose analysis in ZDF rats; format: in vivo, rat; conditions: for blood glucose, mean: ZDF rats
Protocol: as §2
Blood samples for glucose determination were obtained from ZDF rats using standard sampling tubes. Within 30 minutes of collection, samples were separated from the cells by centrifugation. Quantitative determination of blood glucose in serum was performed with an enzymatic in vitro test from Roche Diagnostics GmbH (Gluco-quant, Roche Diagnostics GmbH) using the automated clinical chemistry analyzer Boehringer Mannheim/Hitachi 912.

[6] = kidneys, male fat ZDF rats, terminal sacrifice
[7] = kidneys, male fat ZDF rats, terminal sacrifice, examined: D1 9, D4 8
[8] = age 10 weeks (start of treatment)
[9] = age 17 weeks (treated for seven weeks)

O=C(N[C@H]1CCS[C@H]2CCC[C@@H](C(=O)O)N2C1=O)[C@@H](S)Cc1ccccc1 [omapatrilat]
Natriuretic response compared with ACE inhibitor fosinoprilat [1]: greater natriuretic response

CCOC(=O)[C@H](CCc1ccccc1)N[C@@H](C)C(=O)N1[C@H](C(=O)O)C[C@@H]2CCC[C@@H]21 [ramipril, reference compound]
Albumin/Creatinine (Wistar rats; 6 weeks treatment): 184.27 mg/mmol | Albumin/Creatinine (Wistar rats; 12 weeks treatment): 188.40 mg/mmol | Albumin/Creatinine (Wistar rats; Basal): 130.45 mg/mmol | Incidence of glomerulosclerosis or associated degenerative lesions compared to fat ZDF controls (fat ZDF rats; in words): no differences | Armanni-Ebstein cells GRADE 1: number of animals (fat ZDF rats; [6]): 1 | Armanni-Ebstein cells GRADE 2: number of animals (fat ZDF rats; [6]): 6 | Armanni-Ebstein cells MEAN SEVERITY (fat ZDF rats; [6]): 1.9 | Atrophy: renal tubule GRADE 1: number of animals (fat ZDF rats; [6]): 4 | Atrophy: renal tubule GRADE 2: number of animals (fat ZDF rats; [6]): 4 | Atrophy: renal tubule GRADE 3: number of animals (fat ZDF rats; [6]): 1 | Atrophy: renal tubule MEAN SEVERITY (fat ZDF rats; [6]): 1.7 | Casts: renal tubule GRADE 1: number of animals (fat ZDF rats; [6]): 1 | Casts: renal tubule GRADE 2: number of animals (fat ZDF rats; [6]): 7 | Casts: renal tubule MEAN SEVERITY (fat ZDF rats; [6]): 1.9 | Dilatation: pelvis GRADE 2: number of animals (fat ZDF rats; [6]): 1 | Dilatation: pelvis GRADE 3: number of animals (fat ZDF rats; [6]): 2 | Dilatation: pelvis GRADE 4: number of animals (fat ZDF rats; [6]): 2 | Dilatation: pelvis MEAN SEVERITY (fat ZDF rats; [6]): 3.2 | Glomerulosclerosis GRADE 2: number of animals (fat ZDF rats; [6]): 4 | Glomerulosclerosis GRADE 3: number of animals (fat ZDF rats; [6]): 2 | Glomerulosclerosis MEAN SEVERITY (fat ZDF rats; [6]): 2.3 | Armanni-Ebstein cells: number of animals with finding (total affected) (fat ZDF rats; [7]): 7 | Atrophy: renal tubule: number of animals with finding (total affected) (fat ZDF rats; [7]): 9 | Casts: renal tubule: number of animals with finding (total affected) (fat ZDF rats; [7]): 8 | Dilatation: pelvis: number of animals with finding (total affected) (fat ZDF rats; [7]): 5 | Glomerulosclerosis: number of animals with finding (total affected) (fat ZDF rats; [7]): 6 | HbA1c values compared to the untreated ZDF rats ([2]; 17-week-old ZDF rats, in words): No significant difference | HbA1c, mean [2, 8]: 5.66% | HbA1c, mean [2, 9]: 9.48% | Albumin/Creatinine (Goto-Kakizaki (GK) rats; 6 weeks treatment): 161.71 mg/mmol | Albumin/Creatinine (Goto-Kakizaki (GK) rats; 12 weeks treatment): 244.89 mg/mmol | Albumin/Creatinine (Goto-Kakizaki (GK) rats; Basal): 103.95 mg/mmol | Urine excretion Albumin ([3]; week 0 of treatment): 0.24 mg/kg/h | Urine excretion Albumin/Creatinine ([3]; week 0 of treatment): 37.31 mg/mmol | Urine excretion Albumin ([3]; week 7 of treatment): 1.36 mg/kg/h | Urine excretion Albumin/Creatinine ([3]; week 7 of treatment): 207.35 mg/mmol | Urine excretion Albumin ([3]; week 17 of treatment): 6.26 mg/kg/h | Urine excretion Albumin/Creatinine ([3]; week 17 of treatment): 694.20 mg/mmol | Urine excretion Albumin ([3]; week 27 of treatment): 10.11 mg/kg/h | Urine excretion Albumin/Creatinine ([3]; week 27 of treatment): 1077.88 mg/mmol | Relaxation of aortic rings by acetylcholine ([4]; ACh 10^−5 mol/L after phenylephrine 10^−7 mol/L): 83.73 ± 4.03% | Relaxation of aortic rings by acetylcholine ([4]; ACh 10^−6 mol/L after phenylephrine 10^−7 mol/L): 77.34 ± 3.7% | Relaxation of aortic rings by acetylcholine ([4]; ACh 10^−7 mol/L after phenylephrine 10^−7 mol/L): 51.86 ± 4.43% | Relaxation of aortic rings by acetylcholine ([4]; ACh 10^−8 mol/L after phenylephrine 10^−7 mol/L): 13.08 ± 2.22% | Albumin/Creatinine (ZDF rats; 6 weeks treatment): 1249.59 mg/mmol | Albumin/Creatinine (ZDF rats; 12 weeks treatment): 841.69 mg/mmol | Albumin/Creatinine (ZDF rats; Basal): 1330.99 mg/mmol | NO (endothelial cells): 368.31 ± 42.25 nM | O2^− (superoxide) (endothelial cells): 48.09 ± 7.91 nM | Blood glucose concentration compared to the untreated ZDF rats ([5]; 17-week-old ZDF rats, in words): No significant difference | blood glucose, mean [5, 8]: 11.74 mM | blood glucose, mean [5, 9]: 27.33 mM
